The target of test [1] is T1, IKK-β (Homo sapiens, UniProt O14920).
T1 construct: purchased Promega
T1 sequence (O14920 1-756): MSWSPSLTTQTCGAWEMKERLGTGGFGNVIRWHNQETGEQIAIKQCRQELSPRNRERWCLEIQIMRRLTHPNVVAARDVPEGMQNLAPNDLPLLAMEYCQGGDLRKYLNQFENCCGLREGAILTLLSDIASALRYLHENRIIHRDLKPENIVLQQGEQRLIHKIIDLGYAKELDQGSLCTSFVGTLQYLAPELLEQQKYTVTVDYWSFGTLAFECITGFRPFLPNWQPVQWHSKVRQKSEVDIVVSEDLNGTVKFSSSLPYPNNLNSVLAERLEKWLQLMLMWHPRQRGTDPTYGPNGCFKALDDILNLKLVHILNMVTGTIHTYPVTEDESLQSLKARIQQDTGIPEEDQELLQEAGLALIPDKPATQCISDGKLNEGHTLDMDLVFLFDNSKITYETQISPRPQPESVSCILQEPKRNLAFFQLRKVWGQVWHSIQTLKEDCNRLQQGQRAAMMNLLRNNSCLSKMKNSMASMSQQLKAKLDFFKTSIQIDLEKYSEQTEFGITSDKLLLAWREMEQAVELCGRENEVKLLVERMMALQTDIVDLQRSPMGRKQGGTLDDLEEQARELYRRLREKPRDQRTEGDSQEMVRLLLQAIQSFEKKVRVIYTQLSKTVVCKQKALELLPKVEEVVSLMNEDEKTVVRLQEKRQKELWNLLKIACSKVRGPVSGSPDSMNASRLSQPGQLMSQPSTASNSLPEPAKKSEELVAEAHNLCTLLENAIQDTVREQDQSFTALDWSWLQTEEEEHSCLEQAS
Briefly: ADP-Glo kinase assay, IKK-β inhibition. Format: biochemical. The conditions noted are these: for inhibition at 10 µM: mean ± SD, read-out: % inh. at 10 µM IKK-β. From the text:
(§1) We evaluated the inhibitory activity of the final compounds against GSK-3β, IKK-β, and ROCK-1 kinases using the commercially available ADP-Glo™ kinase assay. The method was based on the measurement of luminescence that correlates with kinase activity. […] The latter are inhibitors of the kinases of interest and were integral to the design of our studies.
(§2) Promega’s Kinase Enzyme Systems (Promega; Madison, WI, USA) were used to determine the activities of the tested compounds against the human recombinant kinases GSK-3β, IKK- β, and ROCK-1. The assays were performed according to the provided manufacturer’s instruction, based on the optimized conditions of the enzymatic reactions, using the low-volume, white polystyrene, 384-well plates. The ADP-Glo™ Assay (Promega; Madison, WI, USA) was used for bioluminescent detection of the kinase activity. Stock solutions of the tested compounds in DMSO (1mM) were diluted with the Kinase Assay Buffer before use (40 mM Tris, pH 7.5, enriched with 50 µM dithiothreitol; DTT), giving the final desired concentrations. The kinase enzymes, substrates, and ATP solutions were also diluted with the assay buffer prior to use. The GSK-3β, IKK-β, and ROCK-1 substrates were derived from human muscle glycogen synthase 1, human IkBA, and human 40S ribosomal protein S6, respectively. The assay procedure was as follows: At first, the appropriate kinase enzyme (GSK-3β: 10 ng per well; IKK-β: 45 ng per well; ROCK-1: 24 ng per well) was incubated with the tested sample (10 µM in well) for 5 min. The DMSO solution (1% in well) was used in the blank samples instead of the tested inhibitors. After the incubation period, ATP (25 µM per well in the case of GSK-3β and IKK-β kinases; 5 µM per well in the case of ROCK-1 kinase) and an appropriate enzyme substrate (0.2 µg/µL in well) were added to start the enzymatic reaction. The reaction mixture was kept at room temperature for 1 h; then, the ADP-Glo™ reagent was added, to terminate the kinase reaction and deplete any remaining ATP. After 40 min, a second reagent (Kinase Detection Reagent) was applied to convert the obtained ADP to ATP and to generate light from the newly synthesized ATP using a luciferase/luciferin reaction. The mixture was incubated for another 30 min at room temperature before the luminescence was measured. The calculations of the percent of kinases’ inhibition by tested compounds were based on the equation 100 − (S/B) × 100; S and B are the enzyme activities with and without the tested sample, respectively. […] Each compound was evaluated in two independent experiments, with every data point collected in duplicate.
On the technique in general: ADP-Glo first removes unused ATP, then detects ADP through luciferase.

Test [2] concerns the target T2, ROCK-1 (Homo sapiens, UniProt Q13464).
T2 construct: purchased Promega
As to the kind of experiment: ADP-Glo kinase assay, ROCK-1 inhibition. In kind it is biochemical.
Excerpt: as §1
Promega’s Kinase Enzyme Systems (Promega; Madison, WI, USA) were used to determine the activities of the tested compounds against the human recombinant kinases GSK-3β, IKK- β, and ROCK-1. The assays were performed according to the provided manufacturer’s instruction, based on the optimized conditions of the enzymatic reactions, using the low-volume, white polystyrene, 384-well plates. The ADP-Glo™ Assay (Promega; Madison, WI, USA) was used for bioluminescent detection of the kinase activity. Stock solutions of the tested compounds in DMSO (1mM) were diluted with the Kinase Assay Buffer before use (40 mM Tris, pH 7.5, enriched with 50 µM dithiothreitol; DTT), giving the final desired concentrations. The kinase enzymes, substrates, and ATP solutions were also diluted with the assay buffer prior to use. The GSK-3β, IKK-β, and ROCK-1 substrates were derived from human muscle glycogen synthase 1, human IkBA, and human 40S ribosomal protein S6, respectively. […] The DMSO solution (1% in well) was used in the blank samples instead of the tested inhibitors. After the incubation period, ATP (25 µM per well in the case of GSK-3β and IKK-β kinases; 5 µM per well in the case of ROCK-1 kinase) and an appropriate enzyme substrate (0.2 µg/µL in well) were added to start the enzymatic reaction. The reaction mixture was kept at room temperature for 1 h; then, the ADP-Glo™ reagent was added, to terminate the kinase reaction and deplete any remaining ATP. After 40 min, a second reagent (Kinase Detection Reagent) was applied to convert the obtained ADP to ATP and to generate light from the newly synthesized ATP using a luciferase/luciferin reaction. The mixture was incubated for another 30 min at room temperature before the luminescence was measured. The calculations of the percent of kinases’ inhibition by tested compounds were based on the equation 100 − (S/B) × 100; S and B are the enzyme activities with and without the tested sample, respectively. […]. IC50 results were obtained using nonlinear regression (GraphPad Prism 9; GraphPad Software, San Diego, CA, USA) by plotting the residual enzyme activities against the applied inhibitor concentration. Each compound was evaluated in two independent experiments, with every data point collected in duplicate.

The target in another test is GSK-3β (Homo sapiens, UniProt P49841). As to the kind of experiment: ADP-Glo kinase assay, GSK-3β inhibition. Format: biochemical. Also noted: purchased Promega. The conditions noted are these: for IC50: mean ± SEM, ATP 25 µM.
Sequence of GSK-3β (P49841 whole entry): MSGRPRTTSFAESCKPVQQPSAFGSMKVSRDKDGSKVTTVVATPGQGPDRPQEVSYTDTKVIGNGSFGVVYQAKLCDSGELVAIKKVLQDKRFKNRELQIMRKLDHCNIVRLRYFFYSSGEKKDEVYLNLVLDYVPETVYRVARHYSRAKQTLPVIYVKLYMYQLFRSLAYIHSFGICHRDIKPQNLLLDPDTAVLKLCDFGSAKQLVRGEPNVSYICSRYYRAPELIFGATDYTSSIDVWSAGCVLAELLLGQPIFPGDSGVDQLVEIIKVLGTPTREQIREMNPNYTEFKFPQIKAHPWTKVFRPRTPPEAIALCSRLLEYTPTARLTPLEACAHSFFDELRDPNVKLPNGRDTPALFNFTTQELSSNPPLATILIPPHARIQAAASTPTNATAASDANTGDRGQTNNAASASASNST
Excerpt: as §1, §2

The test system of test [3] is ROCK-1. On the set-up: method as in PMID 28284870. The settings on record: Figure 1; cited from earlier work.
Test [4] relates to IKK-β. Also noted: method as in PMID 15125939. The settings on record: Figure 1; cited from earlier work.

The values below come from article PMC11173485, “Connecting GSK-3β Inhibitory Activity with IKK-β or ROCK-1 Inhibition to Target Tau Aggregation and Neuroinflammation in Alzheimer’s Disease—Discovery, In Vitro and In Cellulo Activity of Thiazole-Based Inhibitors” (Molecules, 2024).

T2 sequence (Q13464 whole entry): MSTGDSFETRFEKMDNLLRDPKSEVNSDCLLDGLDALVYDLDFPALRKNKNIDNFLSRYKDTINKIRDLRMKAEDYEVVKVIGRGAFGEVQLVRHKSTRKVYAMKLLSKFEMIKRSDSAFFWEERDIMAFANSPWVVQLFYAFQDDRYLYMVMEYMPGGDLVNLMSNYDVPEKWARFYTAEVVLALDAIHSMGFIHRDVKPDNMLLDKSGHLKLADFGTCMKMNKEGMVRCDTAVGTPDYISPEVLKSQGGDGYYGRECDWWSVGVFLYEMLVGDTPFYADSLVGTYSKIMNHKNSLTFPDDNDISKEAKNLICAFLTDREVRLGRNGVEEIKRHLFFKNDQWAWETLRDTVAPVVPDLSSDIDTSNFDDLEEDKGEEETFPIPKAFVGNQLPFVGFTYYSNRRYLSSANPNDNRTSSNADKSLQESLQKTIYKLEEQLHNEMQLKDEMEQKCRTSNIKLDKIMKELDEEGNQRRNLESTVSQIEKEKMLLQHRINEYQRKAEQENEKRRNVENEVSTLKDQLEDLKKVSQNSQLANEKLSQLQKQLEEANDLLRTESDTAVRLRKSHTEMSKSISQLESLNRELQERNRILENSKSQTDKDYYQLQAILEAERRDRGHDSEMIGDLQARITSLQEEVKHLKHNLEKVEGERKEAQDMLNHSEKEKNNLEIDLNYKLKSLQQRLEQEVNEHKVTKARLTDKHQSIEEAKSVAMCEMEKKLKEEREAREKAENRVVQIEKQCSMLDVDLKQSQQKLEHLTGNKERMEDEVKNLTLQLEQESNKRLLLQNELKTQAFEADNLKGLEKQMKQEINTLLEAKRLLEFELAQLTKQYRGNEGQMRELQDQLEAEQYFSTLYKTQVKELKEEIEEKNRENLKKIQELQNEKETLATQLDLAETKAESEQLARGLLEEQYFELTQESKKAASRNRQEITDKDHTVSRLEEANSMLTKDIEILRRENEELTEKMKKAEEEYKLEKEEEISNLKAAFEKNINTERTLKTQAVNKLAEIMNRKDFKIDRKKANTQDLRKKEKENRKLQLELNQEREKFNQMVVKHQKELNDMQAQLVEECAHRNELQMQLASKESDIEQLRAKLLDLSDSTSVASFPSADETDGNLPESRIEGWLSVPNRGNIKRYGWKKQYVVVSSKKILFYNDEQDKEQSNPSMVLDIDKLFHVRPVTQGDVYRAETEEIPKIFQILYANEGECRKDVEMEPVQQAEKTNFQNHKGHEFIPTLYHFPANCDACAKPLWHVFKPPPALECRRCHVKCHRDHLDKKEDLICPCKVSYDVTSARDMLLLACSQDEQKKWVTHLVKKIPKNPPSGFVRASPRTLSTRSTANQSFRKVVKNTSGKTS

`O=C1NC2(CCCO2)Nc2cc(-c3ccnc(NC(=O)C4CC4)c3)sc21` (stereo not shown) [Compound 61, N-(4-(4′-Oxo-3′,4,4′,5-tetrahydro-1′H,3H-spiro[furan-2,2′-thieno [3,2-d]pyrimidin]-6′-yl)pyridin-2-yl)cyclopropanecarboxamide]: the inhibition at 10 µM at IKK-β [1] is < 10%; at ROCK-1 [2] (10 µM, mean ± SD, read-out: % inh. at 10 µM ROCK-1), 40%. For the same compound, half-maximal inhibition at GSK-3β (IC50) required 12 nM.

`CC1(C)NC(=O)c2sc(-c3ccncc3)cc2N1` [I, reference compound]: the inhibition at 10 µM on IKK-β [1] stood at 46%. The IC50 on ROCK-1 [2] (mean ± SEM, ATP 5 µM) was 119 ± 6 nM; with ROCK-1 [3] it was 90 nM; against GSK-3β, 161 ± 2 nM.

As to `NC(=O)Nc1cc(-c2ccc(F)cc2)sc1C(N)=O` [III, reference compound], the IC50 is 405 ± 9 nM against IKK-β [1] (mean ± SEM, ATP 25 µM) and 63 nM with IKK-β [4]. Besides, the inhibition at 10 µM at GSK-3β (10 µM, mean ± SD, read-out: % inh. at 10 µM GSK-3β) is 47%.

The IC50 is the concentration needed to halve the response being measured.
